In the OligoGym collection:
HELM strings list units from the 5' end as sugar, base in round brackets, then linkage (d deoxyribose, r ribose, m 2'-O-methyl, p phosphodiester). Strings are as the collection lists them, not checked against the first reports. ss, as = sense and antisense strand; [hna] = hexitol nucleic acid; [fl2r] = 2'-fluoro

Settings: siRNA
Further: test system not given here.

Substance	target mRNA knockdown [%]
RNA1{r(G)p.r(A)p.r(C)p.r(G)p.[hna](U)p.r(A)p.r(A)p.[hna](A)p.r(C)p.r(G)p.[hna](G)p.r(C)p.r(C)p.[hna](A)p.r(C)p.r(A)p.r(A)p.r(G)p.r(U)p.[hna](U)p.d(T)}|RNA2{r(A)p.m(C)p.r(U)p.r(U)p.r(G)p.r(U)p.r(G)p.r(G)p.r(C)p.r(C)p.r(G)p.r(U)p.r(U)p.r(U)p.r(A)p.r(C)p.r(G)p.r(U)p.r(C)p.r(G)p.r(C)}$$$RNA1{StrandType:ss}|RNA2{StrandType:as}$	38
RNA1{r(C)p.m(C)p.r(C)p.m(C)p.r(A)p.m(G)p.r(G)p.m(U)p.r(A)p.m(A)p.r(C)p.m(G)p.r(A)p.r(U)p.r(U)p.m(U)p.r(U)p.r(C)p.r(U)p.r(T)p.r(T)}|RNA2{r(A)p.r(G)p.r(A)p.r(A)p.r(A)p.r(A)p.r(U)p.m(C)p.r(G)p.r(U)p.r(U)p.r(A)p.m(C)p.m(C)p.r(U)p.r(G)p.r(G)p.r(G)p.r(G)p.r(T)p.r(T)}$$$RNA1{StrandType:ss}|RNA2{StrandType:as}$	69
RNA1{m(U)p.r(U)p.m(A)p.r(A)p.m(G)p.r(G)p.m(A)p.r(G)p.m(A)p.r(A)p.m(G)p.r(C)p.m(U)p.r(G)p.m(A)p.r(C)p.m(G)p.r(G)p.m(C)p.r(T)p.r(T)}|RNA2{m(G)p.r(C)p.r(C)p.m(G)p.r(U)p.r(C)p.r(A)p.m(G)p.r(C)p.r(U)p.r(U)p.r(C)p.r(U)p.r(C)p.r(C)p.r(U)p.r(U)p.r(A)p.r(A)p.r(T)p.r(T)}$$$RNA1{StrandType:ss}|RNA2{StrandType:as}$	45
RNA1{r(U)p.r(U)p.m(U)p.r(G)p.r(A)p.r(U)p.m(C)p.r(A)p.r(G)p.r(C)p.r(G)p.r(G)p.r(A)p.r(G)p.r(A)p.r(C)p.r(U)p.r(C)p.r(G)p.r(T)p.r(T)}|RNA2{r(C)p.r(G)p.r(A)p.r(G)p.r(U)p.r(C)p.r(U)p.r(C)p.r(C)p.r(G)p.r(C)p.m(U)p.r(G)p.r(A)p.r(U)p.m(C)p.r(A)p.r(A)p.r(A)p.r(T)p.r(T)}$$$RNA1{StrandType:ss}|RNA2{StrandType:as}$	89
RNA1{r(C)p.[fl2r](U)p.r(A)p.[fl2r](A)p.r(G)p.[fl2r](C)p.r(C)p.[fl2r](U)p.r(G)p.[fl2r](U)p.r(U)p.[fl2r](U)p.r(C)p.[fl2r](U)p.r(U)p.[fl2r](C)p.r(C)p.[fl2r](U)p.r(C)p.r(T)p.r(T)}|RNA2{r(G)p.[fl2r](A)p.r(G)p.r(G)p.[fl2r](A)p.[fl2r](A)p.r(G)p.[fl2r](A)p.[fl2r](A)p.[fl2r](A)p.r(C)p.[fl2r](A)p.r(G)p.r(G)p.r(C)p.r(U)p.r(U)p.[fl2r](A)p.r(G)p.r(T)p.r(T)}$$$RNA1{StrandType:ss}|RNA2{StrandType:as}$	75
RNA1{[hna](G)p.[hna](A)p.[hna](C)p.r(G)p.r(U)p.r(A)p.r(A)p.r(A)p.r(C)p.r(G)p.r(G)p.r(C)p.r(C)p.r(A)p.r(C)p.r(A)p.r(A)p.[hna](G)p.[hna](U)p.[hna](U)p.d(T)}|RNA2{r(A)p.[hna](C)p.r(U)p.r(U)p.r(G)p.r(U)p.r(G)p.r(G)p.[hna](C)p.r(C)p.r(G)p.r(U)p.r(U)p.r(U)p.r(A)p.r(C)p.r(G)p.[hna](U)p.[hna](C)p.[hna](G)p.d(T)}$$$RNA1{StrandType:ss}|RNA2{StrandType:as}$	35.8
RNA1{r(A)p.r(G)p.r(C)p.r(G)p.r(A)p.r(U)p.r(C)p.r(C)p.r(C)p.r(G)p.r(A)p.r(A)p.r(C)p.r(A)p.r(A)p.r(G)p.r(U)p.r(A)p.r(U)p.r(T)p.r(T)}|RNA2{r(A)p.m(U)p.r(A)p.r(C)p.r(U)p.r(U)p.r(G)p.r(U)p.r(U)p.r(C)p.r(G)p.r(G)p.r(G)p.r(A)p.r(U)p.r(C)p.r(G)p.r(C)p.r(U)p.r(T)p.r(T)}$$$RNA1{StrandType:ss}|RNA2{StrandType:as}$	85
RNA1{m(U)p.r(G)p.r(A)p.r(A)p.r(C)p.r(G)p.r(U)p.m(C)p.r(A)p.r(C)p.r(C)p.r(G)p.r(A)p.r(G)p.r(G)p.r(A)p.r(G)p.r(A)p.r(A)p.r(T)p.r(T)}|RNA2{r(U)p.r(U)p.r(C)p.r(U)p.r(C)p.r(C)p.r(U)p.r(C)p.r(G)p.r(G)p.m(U)p.r(G)p.r(A)p.r(C)p.r(G)p.r(U)p.r(U)p.m(C)p.r(A)p.r(T)p.r(T)}$$$RNA1{StrandType:ss}|RNA2{StrandType:as}$	82
RNA1{r(A)p.r(A)p.r(C)p.r(C)p.r(C)p.r(A)p.r(C)p.r(C)p.r(A)p.r(C)p.r(A)p.[fl2r](G)p.r(C)p.[fl2r](U)p.[fl2r](A)p.[fl2r](G)p.r(A)p.r(A)p.r(C)p.r(U)p.r(U)}|RNA2{r(A)p.r(A)p.r(G)p.r(U)p.r(U)p.r(C)p.r(U)p.r(A)p.r(G)p.r(C)p.r(U)p.r(G)p.r(U)p.r(G)p.r(G)p.r(U)p.r(G)p.r(G)p.r(G)p.r(U)p.r(U)}$$$RNA1{StrandType:ss}|RNA2{StrandType:as}$	75
RNA1{m(U)p.r(C)p.m(C)p.r(C)p.m(U)p.r(U)p.m(C)p.r(C)p.m(A)p.r(C)p.m(C)p.r(G)p.m(C)p.r(C)p.m(A)p.r(U)p.m(A)p.r(U)p.m(U)p.r(T)p.r(T)}|RNA2{r(A)p.r(A)p.r(U)p.r(A)p.r(U)p.r(G)p.r(G)p.r(C)p.r(G)p.r(G)p.r(U)p.r(G)p.r(G)p.r(A)p.r(A)p.r(G)p.r(G)p.r(G)p.r(A)p.r(T)p.r(T)}$$$RNA1{StrandType:ss}|RNA2{StrandType:as}$	11
RNA1{r(A)p.r(A)p.r(A)p.r(C)p.r(G)p.r(U)p.r(G)p.r(A)p.r(C)p.r(U)p.r(U)p.m(U)p.r(G)p.r(G)p.r(U)p.r(U)p.r(C)p.r(C)p.r(U)p.r(T)p.r(T)}|RNA2{r(A)p.r(G)p.r(G)p.r(A)p.r(A)p.r(C)p.r(C)p.r(A)p.r(A)p.r(A)p.r(G)p.r(U)p.m(C)p.r(A)p.r(C)p.r(G)p.r(U)p.r(U)p.r(U)p.r(T)p.r(T)}$$$RNA1{StrandType:ss}|RNA2{StrandType:as}$	83
RNA1{r(U)p.r(C)p.r(C)p.r(U)p.r(C)p.r(G)p.r(U)p.r(C)p.[fl2r](G)p.r(U)p.r(C)p.[fl2r](U)p.[fl2r](G)p.r(U)p.r(U)p.r(C)p.[fl2r](U)p.r(A)p.r(A)p.r(T)p.r(T)}|RNA2{r(U)p.[fl2r](U)p.r(A)p.r(G)p.r(A)p.r(A)p.[fl2r](C)p.r(A)p.r(G)p.r(A)p.r(C)p.r(G)p.r(A)p.r(C)p.r(G)p.r(A)p.r(G)p.r(G)p.r(A)p.r(T)p.r(T)}$$$RNA1{StrandType:ss}|RNA2{StrandType:as}$	77
RNA1{m(G)p.r(G)p.m(G)p.r(A)p.m(G)p.r(G)p.m(U)p.r(C)p.m(U)p.r(U)p.m(A)p.r(G)p.m(A)p.r(A)p.m(A)p.r(A)p.m(C)p.r(A)p.m(C)p.r(T)p.r(T)}|RNA2{r(G)p.r(U)p.r(G)p.r(U)p.r(U)p.r(U)p.r(U)p.r(C)p.r(U)p.r(A)p.r(A)p.r(G)p.r(A)p.r(C)p.r(C)p.r(U)p.r(C)p.r(C)p.r(C)p.r(T)p.r(T)}$$$RNA1{StrandType:ss}|RNA2{StrandType:as}$	17
RNA1{m(G)p.r(G)p.m(A)p.r(G)p.m(C)p.r(A)p.m(C)p.r(G)p.m(C)p.r(U)p.m(U)p.r(A)p.m(C)p.r(U)p.m(A)p.r(C)p.m(C)p.r(U)p.m(U)p.r(T)p.r(T)}|RNA2{r(A)p.r(A)p.r(G)p.r(G)p.r(U)p.r(A)p.r(G)p.r(U)p.r(A)p.r(A)p.r(G)p.r(C)p.r(G)p.r(U)p.r(G)p.r(C)p.r(U)p.r(C)p.r(C)p.r(T)p.r(T)}$$$RNA1{StrandType:ss}|RNA2{StrandType:as}$	51
